{"source": "patent US10329294B2", "about": "“Pyrazolopyrimidine inhibitors of IRAK4 activity” (MERCK SHARP & DOHME CORP., priority 2015, dated 2019)", "note": "Structures can show the parent of a compound that is named as a salt.", "data": [{"target": "IRAK4 (Homo sapiens (Human), UniProt Q9NWZ3)", "sequence (Q9NWZ3 whole entry)": "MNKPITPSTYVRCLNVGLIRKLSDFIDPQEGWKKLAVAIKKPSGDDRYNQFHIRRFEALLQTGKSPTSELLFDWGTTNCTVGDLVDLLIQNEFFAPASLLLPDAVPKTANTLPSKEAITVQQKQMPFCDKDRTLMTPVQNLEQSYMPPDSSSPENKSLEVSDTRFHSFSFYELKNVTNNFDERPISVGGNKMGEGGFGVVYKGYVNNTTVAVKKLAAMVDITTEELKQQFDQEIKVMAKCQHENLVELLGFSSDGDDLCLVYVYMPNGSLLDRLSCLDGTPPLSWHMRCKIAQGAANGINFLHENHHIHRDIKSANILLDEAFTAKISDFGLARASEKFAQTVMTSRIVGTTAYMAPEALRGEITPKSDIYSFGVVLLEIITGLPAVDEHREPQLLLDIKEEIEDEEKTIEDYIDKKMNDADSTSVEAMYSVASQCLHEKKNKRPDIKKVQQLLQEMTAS", "assay": "IRAK4 Kinase Assay", "assay_type": "biochemical", "details": "IMAP fluorescence polarization, 0.5 nM GST tagged IRAK4, 100 μM ATP, 30 minutes at 25° C.; read-out: IRAK4 IC50", "units": {"IC50": "nM"}, "values": [{"smiles": "CC(C)n1cc(NC(=O)c2cnn3ccc(N[C@@H]4CCCC[C@@H]4O)nc23)c(C(F)F)n1", "note": "[Example 199, N-[3-(difluoromethyl)-1-(1-methylethyl)-1H-pyrazol-4-yl]-5-{[(1R,2S)-2-hydroxycyclohexyl]amino} pyrazolo[1,5-a]pyrimidine-3-carboxamide]", "IC50": 9}, {"smiles": "CC(C)n1cc(NC(=O)c2cnn3ccc(N[C@@H]4CCCC(F)(F)[C@@H]4N)nc23)c(C(F)F)n1", "note": "[Example 200, 5-{[(1R,2R)-2-amino-3,3-difluorocyclohexyl]amino}-N-[3-(difluoromethyl)-1-(1-methylethyl)-1H-pyrazol-4-yl]pyrazolo[1,5-a]pyrimidine-3-carboxamide trifluoroacetate]", "IC50": 36}, {"smiles": "Cn1cc(NC(=O)c2cnn3ccc(N4CC[C@@H]5C[C@H]4CN5)nc23)c(C(F)(F)F)n1", "note": "[Example 213, 5-[(1S,5R)-2,6-diazabicyclo[3.2.1]oct-2-yl]-N-[1-methyl-3-(trifluoromethyl)-1H-pyrazol-4-yl]pyrazolo[1,5-a]pyrimidine-3-carboxamide]", "IC50": 3}, {"smiles": "Cn1cc(NC(=O)c2cnn3ccc(N4C5CNCC4C5)nc23)c(C(F)(F)F)n1", "note": "[Example 214, 5-(3,6-diazabicyclo[3.1.1]hept-6-yl)-N-[1-methyl-3-(trifluoromethyl)-1H-pyrazol-4-yl]pyrazolo[1,5-a]pyrimidine-3-carboxamide]", "IC50": 38}, {"smiles": "Cn1cc(NC(=O)c2cnn3ccc(N4CCNCC4C(F)(F)F)nc23)c(C(F)(F)F)n1", "note": "(centres unmarked) [Example 215, N-[1-methyl-3-(trifluoromethyl)-1H-pyrazol-4-yl]-5-[2-(trifluoromethyl)piperazin-1-yl]pyrazolo[1,5-a]pyrimidine-3-carboxamide trifluoroacetate]", "IC50": 121}, {"smiles": "Cn1cc(NC(=O)c2cnn3ccc(N4CCNCC4(C)C)nc23)c(C(F)(F)F)n1", "note": "[Example 216, 5-(2,2-dimethylpiperazin-1-yl)-N-[1-methyl-3-(trifluoromethyl)-1H-pyrazol-4-yl]pyrazolo[1,5-a]pyrimidine-3-carboxamide trifluoroacetate]", "IC50": 127}, {"smiles": "Cn1cc(NC(=O)c2cnn3ccc(NC4CNCC(F)(F)C4)nc23)c(C(F)(F)F)n1", "note": "(centres unmarked) [Example 217, 5-[(5,5-difluoropiperidin-3-yl)amino]-N-[1-methyl-3-(trifluoromethyl)-1H-pyrazol-4-yl]pyrazolo[1,5-a]pyrimidine-3-carboxamide]", "IC50": 47}, {"smiles": "Cn1cc(NC(=O)c2cnn3ccc(N4CC5CNC(C5)C4)nc23)c(C(F)(F)F)n1", "note": "(centres unmarked) [Example 223, 5-(3,6-diazabicyclo[3.2.1]oct-3-yl)-N-[1-methyl-3-(trifluoromethyl)-1H-pyrazol-4-yl]pyrazolo[1,5-a]pyrimidine-3-carboxamide trifluoroacetate]", "IC50": 57}, {"smiles": "Cn1cc(NC(=O)c2cnn3ccc(N4C5CCC4CNC5)nc23)c(C(F)(F)F)n1", "note": "[Example 226, 5-(3,8-diazabicyclo[3.2.1]oct-8-yl)-N-[1-methyl-3-(trifluoromethyl)-1H-pyrazol-4-yl]pyrazolo[1,5-a]pyrimidine-3-carboxamide trifluoroacetate]", "IC50": 2}, {"smiles": "Cn1cc(NC(=O)c2cnn3ccc(N4CCCNC5(CC5)C4)nc23)c(C(F)(F)F)n1", "note": "[Example 227, 5-(4,8-diazaspiro[2.6]non-8-yl)-N-[1-methyl-3-(trifluoromethyl)-1H-pyrazol-4-yl]pyrazolo[1,5-a]pyrimidine-3-carboxamide]", "IC50": 451}, {"smiles": "Cn1cc(NC(=O)c2cnn3ccc(N4C5CCC4CNC5)nc23)c(C(F)F)n1", "note": "[Example 229, 5-(3,8-diazabicyclo[3.2.1]oct-8-yl)-N-[3-(difluoromethyl)-1-methyl-1H-pyrazol-4-yl]pyrazolo[1,5-a]pyrimidine-3-carboxamide trifluoroacetate]", "IC50": 0.5}, {"smiles": "Cn1cc(NC(=O)c2cnn3ccc(N4CC5CNCC4C5)nc23)c(C(F)F)n1", "note": "(centres unmarked) [Example 238, 5-[3,6-diazabicyclo[3.2.1]oct-6-yl]-N-[3-(difluoromethyl)-1-methyl-1H-pyrazol-4-yl]pyrazolo[1,5-a]pyrimidine-3-carboxamide]", "IC50": 4}, {"smiles": "Cn1cc(NC(=O)c2cnn3ccc(N4C[C@@H](N)C[C@H](F)C4)nc23)c(C(F)F)n1", "note": "[Example 248, 5-[(3S,5S)-3-amino-5-fluoropiperidin-1-yl]-N-[3-(difluoromethyl)-1-methyl-1H-pyrazol-4-yl]pyrazolo[1,5-a]pyrimidine-3-carboxamide trifluoroacetate]", "IC50": 0.9}, {"smiles": "Cn1cc(NC(=O)c2cnn3ccc(N4C[C@@H](N)C[C@@H](F)C4)nc23)c(C(F)F)n1", "note": "[Example 249, 5-[(3S,5R)-3-amino-5-fluoropiperidin-1-yl]-N-[3-(difluoromethyl)-1-methyl-1H-pyrazol-4-yl]pyrazolo[1,5-a]pyrimidine-3-carboxamide trifluoroacetate]", "IC50": 1}, {"smiles": "Cn1cc(NC(=O)c2cnn3ccc(N4C[C@H](N)C[C@H](F)C4)nc23)c(C(F)F)n1", "note": "[Example 251, 5-[(3R,5S)-3-amino-5-fluoropiperidin-1-yl]-N-[3-(difluoromethyl)-1-methyl-1H-pyrazol-4-yl]pyrazolo[1,5-a]pyrimidine-3-carboxamide trifluoroacetate]", "IC50": 0.7}, {"smiles": "Cn1cc(NC(=O)c2cnn3ccc(N4C[C@H](N)C[C@@H](F)C4)nc23)c(C(F)F)n1", "note": "[Example 253, 5-[(3R,5R)-3-amino-5-fluoropiperidin-1-yl]-N-[3-(difluoromethyl)-1-methyl-1H-pyrazol-4-yl]pyrazolo[1,5-a]pyrimidine-3-carboxamide trifluoroacetate]", "IC50": 0.5}, {"smiles": "Cn1cc(NC(=O)c2cnn3ccc(N[C@@H]4CNC[C@H](F)C4)nc23)c(C(F)(F)F)n1", "note": "[Example 254, 5-(((3S,5R)-5-Fluoropiperidin-3-yl)amino)-N-(1-methyl-3-(trifluoromethyl)-1H-pyrazol-4-yl)pyrazolo[1,5-a]pyrimidine-3-carboxamide]", "IC50": 876}, {"smiles": "Cn1cc(NC(=O)c2cnn3ccc(N[C@@H]4CNC[C@@H](F)C4)nc23)c(C(F)(F)F)n1", "note": "[Example 255, 5-{[(3S,5S)-5-fluoropiperidin-3-yl]amino}-N-[1-methyl-3-(trifluoromethyl)-1H-pyrazol-4-yl]pyrazolo[1,5-a]pyrimidine-3-carboxamide]", "IC50": 36}, {"smiles": "Cn1cc(NC(=O)c2cnn3ccc(N[C@@H]4CNC[C@@H](F)C4)nc23)c(C(F)F)n1", "note": "[Example 256, N-[3-(difluoromethyl)-1-methyl-1H-pyrazol-4-yl]-5-{[(3S,5S)-5-fluoropiperidin-3-yl]amino}pyrazolo[1,5-a]pyrimidine-3-carboxamide]", "IC50": 8}, {"smiles": "Cn1cc(NC(=O)c2cnn3ccc(N[C@H]4CNC[C@@H](F)C4)nc23)c(C(F)(F)F)n1", "note": "[Example 257, 5-{[(3R,5S)-5-fluoropiperidin-3-yl]amino}-N-[1-methyl-3-(trifluoromethyl)-1H-pyrazol-4-yl]pyrazolo[1,5-a]pyrimidine-3-carboxamide hydrochloride]", "IC50": 0.6}, {"smiles": "Cn1cc(NC(=O)c2cnn3ccc(N[C@H]4CNC[C@@H](F)C4)nc23)c(C(F)F)n1", "note": "[Example 258, N-[3-(difluoromethyl)-1-methyl-1H-pyrazol-4-yl]-5-{[(3R,5S)-5-fluoropiperidin-3-yl]amino}pyrazolo[1,5-a]pyrimidine-3-carboxamide hydrochloride]", "IC50": 0.5}, {"smiles": "Cn1cc(NC(=O)c2cnn3ccc(N[C@@H]4CNC[C@H](F)C4)nc23)c(C(F)F)n1", "note": "[Example 259, N-[3-(difluoromethyl)-1-methyl-1H-pyrazol-4-yl]-5-{[(3S,5R)-5-fluoropiperidin-3-yl]amino}pyrazolo[1,5-a]pyrimidine-3-carboxamide]", "IC50": 156}, {"smiles": "Cn1cc(NC(=O)c2cnn3ccc(N[C@H]4CNC[C@H](F)C4)nc23)c(C(F)(F)F)n1", "note": "[Example 260, 5-{[(3R,5R)-5-fluoropiperidin-3-yl]amino}-N-[1-methyl-3-(trifluoromethyl)-1H-pyrazol-4-yl]pyrazolo[1,5-a]pyrimidine-3-carboxamide]", "IC50": 4}, {"smiles": "Cn1cc(NC(=O)c2cnn3ccc(N[C@H]4CNC[C@H](F)C4)nc23)c(C(F)F)n1", "note": "[Example 261, N-[3-(difluoromethyl)-1-methyl-1H-pyrazol-4-yl]-5-{[(3R,5R)-5-fluoropiperidin-3-yl]amino}pyrazolo[1,5-a]pyrimidine-3-carboxamide trifluoroacetate]", "IC50": 0.5}, {"smiles": "CN[C@H]1CCCC[C@H]1Nc1ccn2ncc(C(=O)Nc3cn(C)nc3C(F)(F)F)c2n1", "note": "[Example 262, N-(1-Methyl-3-(trifluoromethyl)-1H-pyrazol-4-yl)-5-(((1R,2S)-2-(methylamino)cyclohexyl)amino)pyrazolo[1,5-a]pyrimidine-3-carboxamide]", "IC50": 24}, {"smiles": "CN(C)[C@H]1CCCC[C@H]1Nc1ccn2ncc(C(=O)Nc3cn(C)nc3C(F)(F)F)c2n1", "note": "[Example 263, 5-(((1R,2S)-2-(Dimethylamino)cyclohexyl)amino)-N-(1-methyl-3-(trifluoromethyl)-1H-pyrazol-4-yl)pyrazolo[1,5-a]pyrimidine-3-carboxamide]", "IC50": 72}, {"smiles": "Cn1cc(NC(=O)c2cnn3ccc(N[C@@H]4CCCC[C@@H]4N4CCOCC4)nc23)c(C(F)(F)F)n1", "note": "[Example 264, N-(1-Methyl-3-(trifluoromethyl)-1H-pyrazol-4-yl)-5-(((1R,2S)-2-morpholinocyclohexyl)amino)pyrazolo[1,5-a]pyrimidine-3-carboxamide]", "IC50": 19}]}, {"target": "IRAK4 (Homo sapiens (Human), UniProt Q9NWZ3)", "assay": "IRAK4 Kinase Assay", "assay_type": "biochemical", "details": "IRAK4 IC50 (nM), IMAP fluorescence polarization, 0.5 nM GST tagged IRAK4, 100 μM ATP, 30 minutes at 25° C.", "units": {"IC50": "nM"}, "values": [{"smiles": "Cn1cc(NC(=O)c2cnn3ccc(N4CC5CNCC4COC5)nc23)c(C(F)(F)F)n1", "note": "(centres unmarked) [Example 212, 5-(3-Oxa-7,9-diazabicyclo[3.3.2]decan-9-yl)-N-(1-methyl-3-(trifluoromethyl)-1H-pyrazol-4-yl)pyrazolo[1,5-a]pyrimidine-3-carboxamide]", "IC50": 9}, {"smiles": "Cn1cc(NC(=O)c2cnn3ccc(N4CCNC5(CC4)CC5)nc23)c(C(F)(F)F)n1", "note": "[Example 220, 5-(4,7-diazaspiro[2.6]non-7-yl)-N-[1-methyl-3-(trifluoromethyl)-1H-pyrazol-4-yl]pyrazolo[1,5-a]pyrimidine-3-carboxamide trifluoroacetate]", "IC50": 153}]}]}
